{"source": "patent US4223019A", "about": "“Synthetic peptides having pituitary growth hormone releasing activity” (Beckman Instruments, Inc., priority 1979, dated 1980)", "system": "pituitaries removed from 20 day old female rats", "assay": "In Vitro Growth Hormone Release Study", "format": "cell-based, rat", "conditions": "mean ± SEM, control -180 ± 108", "method": "Female rats of the CD-1 strain were housed in a constant temperature room at 24° C. with 14 hours light and 10 hours darkness. The rats were fed Purina brand rat chow ab libitum.\nAll studies were started between 0800 and 1000 hours.\nPituitaries were removed from 20 day old female rats. Two pituitaries were incubated at 36° C. in 1 ml of lactated Ringer's solution in 10 ml polytetrafluoroethylene beakers in a Dubnoff Shaker (90 cycles/min.). The pituitaries were incubated a total of 4 hours (P1, P2, I3, and I4). After two successive one hour preincubation periods (P1, P2), the peptide was added to the incubation medium hourly for 2 hours (I3, I4).\nThis in vitro study was performed in triplicate and a standard radioimmunoassay of growth hormone present in the incubation medium was performed in duplicate. The hormonal activity was calculated as the difference (Δ) of growth hormone (GH) levels between I3, I4 and P2, i.e., (I3 -P2) and (I4 -P2). P values were calculated by Students' t test using six growth hormone values for each value recorded.\nThe growth hormone radioimmunoassay reagents were distributed by the National Institute of Arthritis and […] (NIAMDD) program. The growth hormone values were calculated in terms of nanograms (ng) of a rat standard with a growth hormone potency of 0.61 units/mg.", "note": "Square brackets hold non-standard residues; d marks the D form. Peptide text beside a SMILES is read from it."}
{"molecule": "NCCCC[C@@H](N)C(=O)N[C@@H](Cc1ccc(O)cc1)C(=O)N[C@H](Cc1c[nH]c2ccccc12)C(=O)N[C@H](Cc1c[nH]c2ccccc12)C(=O)N[C@@H](Cc1ccccc1)C(N)=O", "note": "[H2 N--D--Lys--Tyr--D--Trp--D--Trp--Phe--CONH2] (H-[dK]Y[dW][dW]F-NH2)", "values": [{"measurement": "IN VITRO GROWTH HORMONE RELEASE (ΔGH, I3-P2 and I4-P2)", "setting": "peptide 1μg, P Value <0.01", "result": "1046 ± 266 ngΔGH/ml incubation medium"}, {"measurement": "IN VITRO GROWTH HORMONE RELEASE (ΔGH, I3-P2 and I4-P2)", "setting": "peptide 20μg, P Value <0.001", "result": "1487 ± 197 ngΔGH/ml incubation medium"}, {"measurement": "IN VITRO GROWTH HORMONE RELEASE (ΔGH, I3-P2 and I4-P2)", "setting": "peptide 100μg, P Value <0.001", "result": "1654 ± 329 ngΔGH/ml incubation medium"}]}
